Test results taken from US8084449B2, “Dual pharmacophores—PDE4-muscarinic antagonistics” (Glaxo Group Limited, priority 2008, dated 2011).

How the values were obtained:
[1] = tested on: human M1, M2 and M3 ACh receptors stably expressed in CHO cells; assay: Calcium mobilization (FLIPR) IC50 determination for antagonists: inhibition of ACh induced muscarinic receptor activation; assay type: cell-based; conditions: EC80 concentration of ACh, active if IC50 of between 33 uM and 10 nM or less, receptor subtype not specified for the statement
Text: Studies to determine the effectiveness of antagonists to cause blockade of functional intracellular calcium fluxes following agonist (ACh) treatment of cloned human receptors. This system is used for characterizations of antagonist-receptor interactions using four distinct variations of the FLIPR methodology: (a) potency: IC50 determination, (b) potency: pA2 determination, (c) reversibility of antagonist-receptor interaction, or (d) confirmation of no functional agonist activity.
Cell Source The human M1-M3 receptors are cloned and stably expressed in Chinese Hamster Ovary (CHO) cells. The M2 receptors are co-expressed with the chimeric G protein, Gqi5.
Method of Culture: CHO-M1, CHO-Gqi5-M2 and CHO-M3 cells are cultured to confluence at 37° C. in a humidified incubator with 5% CO2/95% air. […] The emitted fluorescence from all 96 wells is measured simultaneously using a cooled CCD camera. […]
Cell plating: A microtiter plate based calcium mobilization FLIPR (Fluorometric Imaging Plate Reader, Molecular Devices, Sunnyvale Calif., [Schroeder K S, Neagle, B D. FLIPR: a new instrument for accurate, high throughput optical screening. J. Biomol. Screen. 1996; 1:75.]) assay is used for the functional characterization of compounds against M1, M2 (w/Gqi5) and M3 ACh receptors stably expressed in CHO cells. […]

| Structure (SMILES) | IC50 (compound pretreatment concentration which inhibits 50% of the ACh induced response), activity rating [1] | melting point |
| --- | --- | --- |
| CCc1nc2c(cnn2CC)c(NC2CCOCC2)c1CNC(=O)c1cccc(C(=O)NCc2ccc(OC)c(-c3cccc(CN4CCN[C@@H](C)C4)c3)c2)n1 [Example 157, N-{[1,6-Diethyl-4-(tetrahydro-2H-pyran-4-ylamino)-1H-pyrazolo[3,4-b]pyridin-5-yl]methyl}-N′-[(6-(methyloxy)-3′-{[(3S)-3-methyl-1-piperazinyl]methyl}-3-biphenylyl)methyl]-2,6-pyridinedicarboxamide] | most active | – |
| NC(=O)c1ccc(Cl)c(Br)c1 | – | 146 to 147 °C |
